According to PubChem BioAssay AID1963834 (Molecular Pharmacology Branch, DTP, NCI, 2024):

Test system: 873145-292-R-J1-PDC complex spheroid viability
Experiment: Anticancer human tumor 873145-292-R-J1-PDC patient-derived renal clear cell carcinoma cell line growth inhibition [POLQ]
Conditions: for IC50: curve of first compound; for viability, T/C: stronger effect = lower value
Method in brief: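 Complex spheroid viability model combining PDC tumour cells with endothelial (HUVEC) and MSC stromal cells. Novobiocin, ART-558 or RP6685 were tested singly and in combination with standard and investigational anticancer drugs. Each was titrated in half-log steps from near clinical Cmax, or from 10 microM where Cmax was unknown.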

[1] = second compound 0.0316 µM, first compound 0.0316 µM
[2] = second compound 0.0316 µM, first compound 0.1 µM
[3] = second compound 0.0316 µM, first compound 0.316 µM
[4] = second compound 0.0316 µM, first compound 1 µM
[5] = second compound 0.0316 µM, first compound 3.16 µM
[6] = second compound 0.0316 µM, first compound 10 µM
[7] = second compound 0.1 µM, first compound 0.0316 µM
[8] = second compound 0.1 µM, first compound 0.1 µM
[9] = second compound 0.1 µM, first compound 0.316 µM
[10] = second compound 0.1 µM, first compound 1 µM
[11] = second compound 0.1 µM, first compound 3.16 µM
[12] = second compound 0.1 µM, first compound 10 µM
[13] = second compound 0.316 µM, first compound 0.0316 µM
[14] = second compound 0.316 µM, first compound 0.1 µM
[15] = second compound 0.316 µM, first compound 0.316 µM
[16] = second compound 0.316 µM, first compound 1 µM
[17] = second compound 0.316 µM, first compound 3.16 µM
[18] = second compound 0.316 µM, first compound 10 µM
[19] = second compound 1 µM, first compound 0.0316 µM
[20] = second compound 1 µM, first compound 0.1 µM
[21] = second compound 1 µM, first compound 0.316 µM
[22] = second compound 1 µM, first compound 1 µM
[23] = second compound 1 µM, first compound 3.16 µM
[24] = second compound 1 µM, first compound 10 µM
[25] = second compound 3.16 µM, first compound 0.0316 µM
[26] = second compound 3.16 µM, first compound 0.1 µM
[27] = second compound 3.16 µM, first compound 0.316 µM
[28] = second compound 3.16 µM, first compound 1 µM
[29] = second compound 3.16 µM, first compound 3.16 µM
[30] = second compound 3.16 µM, first compound 10 µM
[31] = second compound 10 µM, first compound 0.0316 µM
[32] = second compound 10 µM, first compound 0.1 µM
[33] = second compound 10 µM, first compound 0.316 µM
[34] = second compound 10 µM, first compound 1 µM
[35] = second compound 10 µM, first compound 3.16 µM
[36] = second compound 10 µM, first compound 10 µM
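Also: spheroids exposed to compounds for 7 days before viability readout.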
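For viability, T/C in this document: luminescence signal used as surrogate for viable cell content; 100% = DMSO vehicle control viability.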

For `CC1COCCN1c1cc(-c2ccnn2C)c2ccnc(-c3ccn[nH]3)c2n1` (stereo not drawn) + Nc1ccc(C#CCN(C(=O)Cc2ncc(C(F)(F)F)cc2C(F)(F)F)c2ccc(F)cc2)nn1, the IC50 (second compound 0.0316 µM) was greater than 10 µM, the IC50 (second compound 0.1 µM) was greater than 10 µM and the IC50 (second compound 0.316 µM) was greater than 10 µM. The IC50 (second compound 1 µM) was 6.51 µM, the IC50 (second compound 3.16 µM) was greater than 10 µM and the IC50 (second compound 10 µM) was greater than 10 µM. It also gave a viability, T/C [1] of 87.5%, a viability, T/C [2] of 89.8% and a viability, T/C [3] of 79.2%. It also gave a viability, T/C [4] of 55.6%, a viability, T/C [5] of 56.2% and a viability, T/C [6] of 55.3%. For the same compound, the viability, T/C [7] was 102%, the viability, T/C [8] was 80.7% and the viability, T/C [9] was 77.7%. The viability, T/C [10] was 53.8%, the viability, T/C [11] was 57.6% and the viability, T/C [12] was 54.7%. The viability, T/C [13] was 95.5%, the viability, T/C [14] was 99.1% and the viability, T/C [15] was 70.2%. It also gave a viability, T/C [16] of 60.9%, a viability, T/C [17] of 51.7% and a viability, T/C [18] of 53.5%. It also gave a viability, T/C [19] of 96.2%, a viability, T/C [20] of 86.9% and a viability, T/C [21] of 78.8%. The viability, T/C [22] was 58.9%, the viability, T/C [23] was 58.5% and the viability, T/C [24] was 45.9%. For the same compound, the viability, T/C [25] was 88.7%, the viability, T/C [26] was 94.1% and the viability, T/C [27] was 79.1%. For the same compound, the viability, T/C [28] was 59.7%, the viability, T/C [29] was 49.3% and the viability, T/C [30] was 66.1%. It also gave a viability, T/C [31] of 102%, a viability, T/C [32] of 90.1% and a viability, T/C [33] of 80%. The viability, T/C [34] was 64.6%, the viability, T/C [35] was 55.9% and the viability, T/C [36] was 60.1%.
`CC1COCCN1c1cc(C2(S(C)(=N)=O)CC2)nc(-c2ccnc3[nH]ccc23)n1` (stereo not drawn) + Nc1ccc(C#CCN(C(=O)Cc2ncc(C(F)(F)F)cc2C(F)(F)F)c2ccc(F)cc2)nn1 showed an IC50 (second compound 0.0316 µM) greater than 10 µM, an IC50 (second compound 0.1 µM) greater than 10 µM and an IC50 (second compound 0.316 µM) greater than 10 µM. For the same compound, the IC50 (second compound 1 µM) was greater than 10 µM, the IC50 (second compound 3.16 µM) was greater than 10 µM and the IC50 (second compound 10 µM) was greater than 10 µM. It also gave a viability, T/C [1] of 103%, a viability, T/C [2] of 99.2% and a viability, T/C [3] of 102%. The viability, T/C [4] was 80.5%, the viability, T/C [5] was 73.9% and the viability, T/C [6] was 71%. The viability, T/C [7] was 107%, the viability, T/C [8] was 98.4% and the viability, T/C [9] was 82%. For the same compound, the viability, T/C [10] was 83.3%, the viability, T/C [11] was 88.9% and the viability, T/C [12] was 67.8%. For the same compound, the viability, T/C [13] was 102%, the viability, T/C [14] was 92.8% and the viability, T/C [15] was 84.7%. The viability, T/C [16] was 92.3%, the viability, T/C [17] was 78.2% and the viability, T/C [18] was 69.6%. For the same compound, the viability, T/C [19] was 90.7%, the viability, T/C [20] was 90% and the viability, T/C [21] was 90.8%. It also gave a viability, T/C [22] of 88.5%, a viability, T/C [23] of 80.2% and a viability, T/C [24] of 64.4%. The viability, T/C [25] was 92.2%, the viability, T/C [26] was 97.1% and the viability, T/C [27] was 101%. It also gave a viability, T/C [28] of 82.8%, a viability, T/C [29] of 82% and a viability, T/C [30] of 73.2%. For the same compound, the viability, T/C [31] was 105%, the viability, T/C [32] was 106% and the viability, T/C [33] was 103%. The viability, T/C [34] was 110%, the viability, T/C [35] was 85.5% and the viability, T/C [36] was 81.3%.
For `COc1ccc([C@@H](O)c2cc(-c3ncnc4cc(N5CCOCC5)ccc34)c(F)cc2Cl)nn1` + Nc1ccc(C#CCN(C(=O)Cc2ncc(C(F)(F)F)cc2C(F)(F)F)c2ccc(F)cc2)nn1, the IC50 (second compound 0.0316 µM) was 4.69 µM, the IC50 (second compound 0.1 µM) was 5.13 µM and the IC50 (second compound 0.316 µM) was 5.16 µM. The IC50 (second compound 1 µM) was 6.14 µM, the IC50 (second compound 3.16 µM) was 5.93 µM and the IC50 (second compound 10 µM) was greater than 10 µM. For the same compound, the viability, T/C [1] was 102%, the viability, T/C [2] was 91.9% and the viability, T/C [3] was 86.2%. It also gave a viability, T/C [4] of 64.2%, a viability, T/C [5] of 54.1% and a viability, T/C [6] of 44.4%. For the same compound, the viability, T/C [7] was 92.8%, the viability, T/C [8] was 91.4% and the viability, T/C [9] was 82.9%. For the same compound, the viability, T/C [10] was 64.9%, the viability, T/C [11] was 58.1% and the viability, T/C [12] was 42.2%. It also gave a viability, T/C [13] of 90.8%, a viability, T/C [14] of 114% and a viability, T/C [15] of 76.1%. It also gave a viability, T/C [16] of 67.3%, a viability, T/C [17] of 60.7% and a viability, T/C [18] of 41.1%. For the same compound, the viability, T/C [19] was 92.4%, the viability, T/C [20] was 85.4% and the viability, T/C [21] was 92.1%. It also gave a viability, T/C [22] of 78.6%, a viability, T/C [23] of 59.8% and a viability, T/C [24] of 43%. For the same compound, the viability, T/C [25] was 99.5%, the viability, T/C [26] was 93.6% and the viability, T/C [27] was 81.4%. The viability, T/C [28] was 74%, the viability, T/C [29] was 51% and the viability, T/C [30] was 47.3%. The viability, T/C [31] was 104%, the viability, T/C [32] was 105% and the viability, T/C [33] was 86.5%. It also gave a viability, T/C [34] of 81%, a viability, T/C [35] of 60% and a viability, T/C [36] of 53.6%.
With `Cn1ncnc1[C@H]1c2n[nH]c(=O)c3cc(F)cc(c23)N[C@@H]1c1ccc(F)cc1` + Nc1ccc(C#CCN(C(=O)Cc2ncc(C(F)(F)F)cc2C(F)(F)F)c2ccc(F)cc2)nn1 the IC50 (second compound 0.0316 µM) was greater than 0.1 µM, the IC50 (second compound 0.1 µM) was greater than 0.1 µM and the IC50 (second compound 0.316 µM) was greater than 0.1 µM. For the same compound, the IC50 (second compound 1 µM) was greater than 0.1 µM, the IC50 (second compound 3.16 µM) was greater than 0.1 µM and the IC50 (second compound 10 µM) was greater than 0.1 µM. For the same compound, the viability, T/C (second compound 0.0316 µM, first compound 0.000316 µM) was 124%, the viability, T/C (second compound 0.0316 µM, first compound 0.001 µM) was 103% and the viability, T/C (second compound 0.0316 µM, first compound 0.00316 µM) was 90.9%. For the same compound, the viability, T/C (second compound 0.0316 µM, first compound 0.01 µM) was 99.3%, the viability, T/C [1] was 106% and the viability, T/C [2] was 104%. For the same compound, the viability, T/C (second compound 0.1 µM, first compound 0.000316 µM) was 105%, the viability, T/C (second compound 0.1 µM, first compound 0.001 µM) was 99.3% and the viability, T/C (second compound 0.1 µM, first compound 0.00316 µM) was 107%. For the same compound, the viability, T/C (second compound 0.1 µM, first compound 0.01 µM) was 91.8%, the viability, T/C [7] was 102% and the viability, T/C [8] was 99.6%. The viability, T/C (second compound 0.316 µM, first compound 0.000316 µM) was 97%, the viability, T/C (second compound 0.316 µM, first compound 0.001 µM) was 108% and the viability, T/C (second compound 0.316 µM, first compound 0.00316 µM) was 99.2%. For the same compound, the viability, T/C (second compound 0.316 µM, first compound 0.01 µM) was 96.7%, the viability, T/C [13] was 98.8% and the viability, T/C [14] was 96.8%. For the same compound, the viability, T/C (second compound 1 µM, first compound 0.000316 µM) was 94.9%, the viability, T/C (second compound 1 µM, first compound 0.001 µM) was 100% and the viability, T/C (second compound 1 µM, first compound 0.00316 µM) was 96.1%. It also gave a viability, T/C (second compound 1 µM, first compound 0.01 µM) of 97.1%, a viability, T/C [19] of 95.9% and a viability, T/C [20] of 96.3%. For the same compound, the viability, T/C (second compound 3.16 µM, first compound 0.000316 µM) was 92.1%, the viability, T/C (second compound 3.16 µM, first compound 0.001 µM) was 108% and the viability, T/C (second compound 3.16 µM, first compound 0.00316 µM) was 97.2%. For the same compound, the viability, T/C (second compound 3.16 µM, first compound 0.01 µM) was 95.3%, the viability, T/C [25] was 95.8% and the viability, T/C [26] was 95.8%. For the same compound, the viability, T/C (second compound 10 µM, first compound 0.000316 µM) was 107%, the viability, T/C (second compound 10 µM, first compound 0.001 µM) was 110% and the viability, T/C (second compound 10 µM, first compound 0.00316 µM) was 108%. For the same compound, the viability, T/C (second compound 10 µM, first compound 0.01 µM) was 117%, the viability, T/C [31] was 107% and the viability, T/C [32] was 103%.
